{"source": "patent US11596622B2", "about": "“Mazindol treatment for heroin dependence and substance use disorder” (NLS Pharmaceutics AG, priority 2017, dated 2023)", "key": {"M1(h)": {"biological_target": "T1, M1(h) (Homo sapiens, UniProt P11229)", "T1 construct": "Eurofins CEREP", "T1 sequence (P11229 1-460)": "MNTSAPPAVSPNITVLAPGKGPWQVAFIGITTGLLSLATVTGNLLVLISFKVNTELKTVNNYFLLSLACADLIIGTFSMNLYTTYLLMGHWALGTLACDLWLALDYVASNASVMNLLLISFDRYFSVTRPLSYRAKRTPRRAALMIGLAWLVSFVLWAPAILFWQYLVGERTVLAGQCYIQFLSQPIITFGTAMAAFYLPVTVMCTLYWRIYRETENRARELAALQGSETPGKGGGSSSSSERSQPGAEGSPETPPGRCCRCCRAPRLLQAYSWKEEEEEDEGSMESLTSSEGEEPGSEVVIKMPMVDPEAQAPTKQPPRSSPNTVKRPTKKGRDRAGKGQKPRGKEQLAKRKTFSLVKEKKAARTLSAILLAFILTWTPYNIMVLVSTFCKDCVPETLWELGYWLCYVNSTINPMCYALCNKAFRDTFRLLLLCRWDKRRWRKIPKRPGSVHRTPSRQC", "test": "Radioligand binding, M1 (Eurofins CEREP)", "details": "1.0 × 10^−05 M; antagonist radioligand; read-out: percent inhibition of the binding of a radioactively labeled ligand", "description": "(§1) Table A discloses mazindol and Met tested at […] and the compound binding calculated as a percent inhibition of the binding of a radioactively labeled ligand specific for each target (Eurofins CEREP, France).\n(§2) An inhibition or stimulation of more than 50% is considered a significant effect of the test compounds. Fifty percent is a common cut-off for further investigation (i.e. determination of IC50 or EC50 values from concentration-response curves). Tables B and C display the binding profiles for Mazindol and Met.\n(§3) The results are expressed as a percent of control specific binding obtained in the presence of the test compounds:\n(§4) [formula] and as a percent inhibition of control specific binding obtained in the presence of the test compounds: […]"}, "μ (MOP) (h)": {"biological_target": "T2, μ (MOP) (h) (Homo sapiens, UniProt P35372)", "T2 construct": "Eurofins CEREP", "T2 sequence (P35372 whole entry)": "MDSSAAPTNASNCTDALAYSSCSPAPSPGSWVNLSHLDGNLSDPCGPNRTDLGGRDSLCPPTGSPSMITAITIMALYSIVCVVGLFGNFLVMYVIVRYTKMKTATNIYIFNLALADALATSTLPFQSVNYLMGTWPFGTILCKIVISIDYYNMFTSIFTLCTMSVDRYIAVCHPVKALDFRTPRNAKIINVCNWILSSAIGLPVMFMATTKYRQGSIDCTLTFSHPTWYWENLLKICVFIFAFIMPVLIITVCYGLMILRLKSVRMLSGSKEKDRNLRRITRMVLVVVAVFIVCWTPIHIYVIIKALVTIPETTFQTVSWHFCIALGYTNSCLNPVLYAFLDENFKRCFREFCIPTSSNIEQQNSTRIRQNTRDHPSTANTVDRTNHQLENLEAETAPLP", "test": "Radioligand binding, μ opioid receptor (Eurofins CEREP)", "description": "as §1, §2, §3, §4"}, "Dopamine transporter(h)": {"biological_target": "T3, Dopamine transporter(h) (Homo sapiens, UniProt Q01959)", "T3 construct": "Eurofins CEREP", "T3 sequence (Q01959 whole entry)": "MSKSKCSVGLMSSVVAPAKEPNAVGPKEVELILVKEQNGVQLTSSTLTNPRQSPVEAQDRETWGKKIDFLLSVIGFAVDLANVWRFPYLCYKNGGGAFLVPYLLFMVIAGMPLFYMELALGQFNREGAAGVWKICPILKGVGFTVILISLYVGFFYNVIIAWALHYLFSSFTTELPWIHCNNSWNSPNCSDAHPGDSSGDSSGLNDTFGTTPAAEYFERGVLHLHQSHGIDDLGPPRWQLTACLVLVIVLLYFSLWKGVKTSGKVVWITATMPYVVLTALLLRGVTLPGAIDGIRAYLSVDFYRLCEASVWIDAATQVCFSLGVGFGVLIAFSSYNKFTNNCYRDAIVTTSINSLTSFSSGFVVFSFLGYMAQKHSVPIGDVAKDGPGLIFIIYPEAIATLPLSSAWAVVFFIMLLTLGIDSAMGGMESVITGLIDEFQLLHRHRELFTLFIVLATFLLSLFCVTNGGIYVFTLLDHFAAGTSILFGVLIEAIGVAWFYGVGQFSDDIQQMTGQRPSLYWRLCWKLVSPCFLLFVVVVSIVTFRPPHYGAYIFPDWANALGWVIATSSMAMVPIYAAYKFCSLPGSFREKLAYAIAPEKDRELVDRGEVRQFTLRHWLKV", "test": "Radioligand binding, dopamine transporter (Eurofins CEREP)", "details": "1.0 × 10^−05 M; antagonist radioligand; read-out: percent inhibition of the binding of a radioactively labeled ligand", "description": "as §1\nAn inhibition or stimulation of more than 50% is considered a significant effect of the test compounds. Fifty percent is a common cut-off for further investigation (i.e. determination of IC50 or EC50 values from concentration-response curves).\nas §3, §4"}, "5-HT7(h)": {"biological_target": "T4, 5-HT7(h) (Homo sapiens, UniProt P34969)", "T4 construct": "Eurofins CEREP", "T4 sequence (P34969 whole entry)": "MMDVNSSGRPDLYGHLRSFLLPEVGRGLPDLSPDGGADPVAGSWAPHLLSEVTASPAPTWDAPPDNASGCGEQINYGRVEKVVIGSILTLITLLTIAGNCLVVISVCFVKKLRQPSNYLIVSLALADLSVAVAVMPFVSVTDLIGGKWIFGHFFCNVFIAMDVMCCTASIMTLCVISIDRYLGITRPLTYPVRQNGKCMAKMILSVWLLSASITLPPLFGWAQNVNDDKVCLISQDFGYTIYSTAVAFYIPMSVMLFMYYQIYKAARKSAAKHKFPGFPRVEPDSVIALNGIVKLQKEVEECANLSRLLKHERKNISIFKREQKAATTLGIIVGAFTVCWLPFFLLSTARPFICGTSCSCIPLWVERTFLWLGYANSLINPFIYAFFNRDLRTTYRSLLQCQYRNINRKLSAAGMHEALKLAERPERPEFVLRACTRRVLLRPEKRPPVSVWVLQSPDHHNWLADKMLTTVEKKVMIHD", "test": "Radioligand binding, 5-HT7 (Eurofins CEREP)", "details": "1.0 × 10^−05 M; agonist radioligand; read-out: percent inhibition of the binding of a radioactively labeled ligand", "description": "as §1, §2, §3, §4"}, "k (KOP)": {"biological_target": "T5, k (KOP) (Rattus norvegicus, UniProt P34975)", "T5 construct": "Eurofins CEREP", "T5 sequence (P34975 whole entry)": "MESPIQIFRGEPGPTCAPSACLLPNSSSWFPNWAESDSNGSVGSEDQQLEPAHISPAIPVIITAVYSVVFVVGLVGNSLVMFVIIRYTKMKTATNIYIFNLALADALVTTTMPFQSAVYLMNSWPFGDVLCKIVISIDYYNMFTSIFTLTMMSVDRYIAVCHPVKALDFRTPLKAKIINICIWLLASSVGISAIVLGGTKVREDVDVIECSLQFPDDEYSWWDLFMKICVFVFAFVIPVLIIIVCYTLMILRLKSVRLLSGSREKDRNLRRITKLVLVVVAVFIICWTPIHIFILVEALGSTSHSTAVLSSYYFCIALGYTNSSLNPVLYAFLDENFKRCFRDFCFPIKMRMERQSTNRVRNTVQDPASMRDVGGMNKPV", "test": "Radioligand binding, κ opioid receptor (Eurofins CEREP)", "description": "as §1, §2, §3, §4"}, "[1]": {"details": "Nakashima et al., 2004; cited from earlier work"}, "[2]": {"test": "Pharmacokinetics of mazindol after oral administration", "details": "immediate release formulation"}}, "data": [{"smiles": "OC1(c2ccc(Cl)cc2)c2ccccc2C2=NCCN21", "note": "(centres unmarked) [Mazindol, 5-(4-chlorophenyl)-2,5-dihydro-3 H-imadazo[2,1-a]isoindol-5-ol]", "values": [{"measurement": "inhibition at 10 µM", "setting": "M1(h)", "result": 52.1, "unit": "%"}, {"measurement": "inhibition at 10 µM", "setting": "μ (MOP) (h); 1.0 × 10^−05 M, agonist radioligand, read-out: percent inhibition of the binding of a radioactively labeled ligand", "result": 89.9, "unit": "%"}, {"measurement": "affinity for μ-opioid receptors", "setting": "μ (MOP) (h); compared with amphetamines", "result": "higher affinity"}, {"measurement": "inhibition at 10 µM", "setting": "Dopamine transporter(h)", "result": 98.2, "unit": "%"}, {"measurement": "inhibition at 10 µM", "setting": "5-HT7(h)", "result": 52.9, "unit": "%"}, {"measurement": "affinity for κ-opioid receptors", "setting": "k (KOP)", "result": "modest affinity"}, {"measurement": "stability (hydrolysis to Met)", "setting": "[1]", "result": "hydrolysis of mazindol at moderate temperatures in neutral and alkaline aqueous solutions"}, {"measurement": "time to steady-state concentrations", "setting": "[2]", "result": "30 to 55", "unit": "h"}]}]}
